Data: US4644063A, “1,3-oxazolidine-2-one derivatives” (Nippon Chemiphar Co., Ltd., priority 1984, dated 1987)
Counter-ions that a name gives are not always drawn.

Columns and labels:
[1] = test system: Glutamic Acid at Neuromuscular Junctions of Crayfish (opener muscles of the first walking legs); test: Blocking effects against Glutamic Acid at Neuromuscular Junctions of Crayfish; settings: 5-minute pretreatment, L-glutamic acid 10^-4 M
[2] = test system: Anemic Decerebrate Rigidity Sample (EMG, M. triceps brachii); test: Effects on Anemic Decerebrate Rigidity Sample (suppression of EMG of forelimb muscle); type: in vivo, Wistar male rats; settings: iv, 10 min; rat, 3 mg/kg in physiological saline through femoral vein, 10 minutes after administration; read-out: Suppression rate
[3] = Acute Toxicity (up-and-down method); settings: mouse, in vivo, iv (caudal vein), ddN male mice
Procedure: Using ddN male mice, the acute toxicity level of each test compound was determined in accordance with an up-and-down method. Some of the test compounds used were dissolved in physiological saline and administered through the caudal vein.

[4] = test system: neuraxial muscle relaxing effect; test: Neuraxial muscle relaxing effect, experiment conducted by the inventors; type: in vivo
[5] = reported by Nikolova; cited from earlier work
glutamic acid = settings: in higher animals; cited from earlier work
higher animals = settings: Oleny et al; cited from earlier work
[6] = test compound 2 × 10^-5 M, 20 µM
[7] = test compound 2 × 10^-4 M, 200 µM

Row | SMILES | inhibition in vivo at 3 mg/kg [2] [%] | LD50 [3] [mg/kg] | other results
1 | CCCC[C@@H]1[C@@H](c2ccccc2)OC(=O)N1CCCN1CCCCC1 (racemic) [Compound 35, (4RS,5RS)-4-butyl-5-phenyl-3-(3-piperidinopropyl)-1,3-oxazolidine-2-one] |  |  | Blocking rate against glutamic acid [1, 6]: 68%
2 | CCCCCC[C@@H]1[C@@H](c2ccccc2)OC(=O)N1CCCN1CCCCC1 (racemic) [Compound 41, (4RS,5RS)-4-hexyl-5-phenyl-3-(3-piperidinopropyl)-1,3-oxazolidine-2-one] |  |  | Blocking rate against glutamic acid [1, 6]: 69%
3 | CC(C)C[C@@H]1[C@H](c2ccc(F)cc2)OC(=O)N1CCCN1CCCCC1 (racemic) [Compound 29, (4RS,5SR)-5-(4-fluorophenyl)-4-(2-methylpropyl)-3-(3-piperidinopropyl)-1,3-oxazolidine-2-one] | 9.9 | 66.1 | 
4 | CC(C)[C@@H]1[C@@H](c2ccccc2)OC(=O)N1CCCN1CCCCC1 (racemic) [Compound 2, (4RS,5RS)-4-(1-methylethyl)-5-phenyl-3-(3-piperidinopropyl)-1,3-oxazolidine-2-one] | 19.8 | 18.8 | 
5 | CC1C(c2ccccc2)OC(=O)N1CCN1CCCCC1 (stereo not shown) [4-methyl-5-phenyl-3-(2-piperidinoethyl)-1,3-oxazolidine-2-one] |  |  | neuraxial muscle relaxing effect [4]: extremely weak; analgesic effect [5]: has an analgesic effect; anti-convulsion effect [5]: exerts no anti-convulsion; neuraxial muscle relaxing effect [5]: exerts no anti-convulsion nor neuraxial muscle relaxing effects
6 | CC(C)C[C@H]1[C@@H](c2ccccc2)OC(=O)N1CCCN1CCCCCC1 [Compound 17, (4S,5R)-4-(2-methylpropyl)-3-[3-(perhydroazepine-1-yl-)propyl]-5-phenyl-1,3-oxazolidine-2-one] | 93 | 40.1 | Blocking rate against glutamic acid [1, 7]: 90%
7 | CC(C)C[C@@H]1[C@H](c2ccccc2)OC(=O)N1CCCN1CCCCC1 (racemic) [Compound 3, (4RS,5SR)-4-(2-methylpropyl)-5-phenyl-3-(3-piperidinopropyl)-1,3-oxazolidine-2-one] | 18 | 55.5 | Blocking rate against glutamic acid [1, 7]: 89%
8 | CC(C)C[C@H]1[C@H](c2ccccc2)OC(=O)N1CCCN1CCCCC1 [Compound 7, (4S,5S)-4-(2-methylpropyl)-5-phenyl-3-(3-piperidinopropyl)-1,3-oxazolidine-2-one] | 64.8 | 30.4 | Blocking rate against glutamic acid [1, 7]: 92%
9 | C[C@@H]1[C@@H](c2ccccc2)OC(=O)N1CCN1CCCC1 (racemic) [Comparative compound 5, (4RS,5RS)-4-methyl-5-phenyl-3-(2-pyrrolidinoethyl)-1,3-oxazolidine-2-one hydrochloride, reference compound] | 3 |  | 
10 | C[C@@H]1[C@@H](c2ccccc2)OC(=O)N1CCN1CCCCC1 (racemic) [Comparative compound 3, (4RS,5RS)-4-methyl-5-phenyl-3-(2-piperidinoethyl)-1,3-oxazolidine-2-one hydrochloride, reference compound] | 2.2 |  | 
11 | CC(C)C[C@H]1[C@@H](c2ccccc2)OC(=O)N1CCCN1CCCCC1 [Compound 5, (4S,5R)-4-(2-methylpropyl)-5-phenyl-3-(3-piperidinopropyl)-1,3-oxazolidine-2-one] | 37.7 | 69 | Blocking rate against glutamic acid [1, 7]: 91%
12 | CCCC[C@@H]1[C@H](c2ccccc2)OC(=O)N1CCCN1CCCCC1 (racemic) [Compound 36, (4RS,5SR)-4-butyl-5-phenyl-3-(3-piperidinopropyl)-1,3-oxazolidine-2-one] |  |  | Blocking rate against glutamic acid [1, 6]: 53%
13 | CC(C)[C@@H]1[C@H](c2ccccc2)OC(=O)N1CCCN1CCCCC1 (racemic) [Compound 1, (4RS,5SR)-4-(1-methylethyl)-5-phenyl-3-(3-piperidinopropyl)-1,3-oxazolidine-2-one] | 12 | 29.7 | 
14 | N[C@H](C(=O)O)c1cc(=O)[nH]o1 [ibotenic acid] |  |  | agonist for glutamic acid (glutamic acid): extremely strong agonist; effects induced from administration (higher animals): dystropy, rigidity, tremor, convulsion and the like are induced
15 | CC(C)C[C@@H]1[C@H](c2ccccc2)OC(=O)N1CCCN1CCCC1 (racemic) [Compound 13, (4RS,5SR)-4-(2-methylpropyl)-5-phenyl-3-(3-pyrrolidinopropyl)-1,3-oxazolidine-2-one] |  | 75.1 | Blocking rate against glutamic acid [1, 7]: 80%
16 | N[C@@H](Cn1oc(=O)[nH]c1=O)C(=O)O [quisqualic acid] |  |  | agonist for glutamic acid (glutamic acid): extremely strong agonist; effects induced from administration (higher animals): dystropy, rigidity, tremor, convulsion and the like are induced
17 | CC(C)C[C@@H]1[C@@H](c2ccccc2)OC(=O)N1CCCN1CCCCC1 [Compound 8, (4R,5R)-4-(2-methylpropyl)-5-phenyl-3-(3-piperidinopropyl)-1,3-oxazolidine-2-one] | 12 |  | 
18 | CC(C)C[C@@H]1[C@@H](c2ccccc2)OC(=O)N1CCCN1CCCCC1 (racemic) [Compound 4, (4RS,5RS)-4-(2-methylpropyl)-5-phenyl-3-(3-piperidinopropyl)-1,3-oxazolidine-2-one] | 21.2 | 29.9 | Blocking rate against glutamic acid [1, 7]: 88%
19 | C=C(C)[C@H]1CN[C@H](C(=O)O)[C@H]1CC(=O)O [kainic acid] |  |  | agonist for glutamic acid (glutamic acid): extremely strong agonist; effects induced from administration (higher animals): dystropy, rigidity, tremor, convulsion and the like are induced
20 | C[C@@H]1[C@H](c2ccccc2)OC(=O)N1CCN1CCCC1.Cl (racemic) [Comparative compound 4, (4RS,5SR)-4-methyl-5-phenyl-3-(2-pyrrolidinoethyl)-1,3-oxazolidine-2-one hydrochloride, reference compound] | 1 |  | Blocking rate against glutamic acid [1, 7]: 45%
21 | CC(C)[C@@H]1[C@@H](c2ccccc2)OC(=O)N1CCCN1CCCC1 (racemic) [Compound 10, (4RS, 5RS)-4-(1-methylethyl)-5-phenyl-3-(3-pyrrolidinopropyl)-1,3-oxazolidine-2-one] | 18.7 | 54.6 | 
22 | CC(C)CC[C@@H]1[C@H](c2ccccc2)OC(=O)N1CCCN1CCCCC1 (racemic) [Compound 40, (4RS,5SR)-4-(3-methylbutyl)-5-phenyl-3-(3-piperidinopropyl)-1,3-oxazolidine-2-one] |  | 53.6 | Blocking rate against glutamic acid [1, 6]: 61%
23 | C[C@@H]1[C@H](c2ccccc2)OC(=O)N1CCN1CCCCC1.Cl (racemic) [Comparative compound 2, (4RS,5SR)-4-methyl-5-phenyl-3-(2-piperidinoethyl)-1,3-oxazolidine-2-one hydrochloride, reference compound] | 3.6 |  | Blocking rate against glutamic acid [1, 7]: 0%
24 | CC(C)C[C@@H]1[C@@H](c2ccccc2)OC(=O)N1CCCN1CCCC1 (racemic) [Compound 14, (4RS,5RS)-4-(2-methylpropyl)-5-phenyl-3-(3-pyrrolidinopropyl)-1,3-oxazolidine-2-one] | 10.2 | 53.2 | 
25 | Cc1ccc(C(=O)C(C)CN2CCCCC2)cc1 (stereo not shown) [Comparative compound 1, toluperisone hydrochloride, reference compound] | 4.8 |  | 
26 | Cc1ccc([C@@H]2OC(=O)N(CCCN3CCCCC3)[C@@H]2CC(C)C)cc1 (racemic) [Compound 25, (4RS,5SR)-5-(4-methylphenyl)-4-(2-methylpropyl)-3-(3-piperidinopropyl)-1,3-oxazolidine-2-one] | 10.9 | 34.9 | 
27 | C/C(=C/C=C/[C@@H](C)C(=O)O)[C@H]1CN[C@H](C(=O)O)[C@H]1CC(=O)O [domoic acid] |  |  | agonist for glutamic acid (glutamic acid): extremely strong agonist; effects induced from administration (higher animals): dystropy, rigidity, tremor, convulsion and the like are induced
28 | CCCCC[C@@H]1[C@@H](c2ccccc2)OC(=O)N1CCCN1CCCCC1 (racemic) [Compound 37, (4RS,5RS)-4-pentyl-5-phenyl-3-(3-piperidinopropyl)-1,3-oxazolidine-2-one] |  |  | Blocking rate against glutamic acid [1, 6]: 58%
29 | CC(C)C[C@@H]1[C@H](c2ccccc2)OC(=O)N1CCCN1CCCCC1 [Compound 6, (4R,5S)-4-(2-methylpropyl)-5-phenyl-3-(3-piperidinopropyl)-1,3-oxazolidine-2-one] | 14.9 |  | 
30 | COc1ccc([C@@H]2OC(=O)N(CCCN3CCCCC3)[C@@H]2CC(C)C)cc1 (racemic) [Compound 27, (4RS,5SR)-5-(4-methoxyphenyl)-4-(2-methylpropyl)-3-(3-piperidinopropyl)-1,3-oxazolidine-2-one] | 8.4 | 39.8 | 
